Experimental data taken from PubChem BioAssay AID248 (DTP/NCI, 2004).
Where “and” joins values, the source holds several entries; their conditions need not be identical. Equal values may be shown once. Inconclusive results and toxic doses are left out. Cut-off read from the data, not from the text of the source: active = T/C of 150% or more; inactive = T/C below 125%.

Test system: L1210 leukemia ip in BDF1 mice, survival T/C
Experiment: NCI In Vivo Anticancer Drug Screen. Data for tumor model L1210 Leukemia (intraperitoneal) in B6D2F1 (BDF1) mice
Conditions: endpoint: mean survival time, higher = longer survival
Outline: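 Each compound was tested against a transplantable tumor grown in mice. The endpoint was survival, with treated animals benchmarked against vehicle controls as a simple ratio.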

[1] = dose: 100.0 mg/kg/injection, schedule: Q01DX009 (ip), vehicle: Klucel (hydroxypropylcellulose) (HPC)
[2] = dose: 200.0 mg/kg/injection, schedule: Q01DX009 (ip), vehicle: Klucel (hydroxypropylcellulose) (HPC)
[3] = dose: 400.0 mg/kg/injection, schedule: Q01DX009 (ip), vehicle: Klucel (hydroxypropylcellulose) (HPC)
[4] = dose: 25.0 mg/kg/injection, schedule: Q04DX003 (ip), vehicle: saline with Tween-80
[5] = dose: 100.0 mg/kg/injection, schedule: Q04DX003 (ip), vehicle: saline with Tween-80
[6] = dose: 100.0 mg/kg/injection, schedule: Q04DX002 (ip), vehicle: Klucel (hydroxypropylcellulose) (HPC)
[7] = dose: 200.0 mg/kg/injection, schedule: Q04DX002 (ip), vehicle: Klucel (hydroxypropylcellulose) (HPC)
[8] = dose: 50.0 mg/kg/injection, schedule: Q01DX001 (ip), vehicle: other
[9] = dose: 100.0 mg/kg/injection, schedule: Q01DX001 (ip), vehicle: other
[10] = dose: 200.0 mg/kg/injection, schedule: Q01DX001 (ip), vehicle: other
[11] = dose: 400.0 mg/kg/injection, schedule: Q01DX001 (ip), vehicle: other
[12] = dose: 400.0 mg/kg/injection, schedule: Q04DX002 (ip), vehicle: Klucel (hydroxypropylcellulose) (HPC)
[13] = dose: 100.0 mg/kg/injection, schedule: Q01DX001 (ip), vehicle: Klucel (hydroxypropylcellulose) (HPC)
[14] = dose: 200.0 mg/kg/injection, schedule: Q01DX001 (ip), vehicle: Klucel (hydroxypropylcellulose) (HPC)
[15] = dose: 400.0 mg/kg/injection, schedule: Q01DX001 (ip), vehicle: Klucel (hydroxypropylcellulose) (HPC)
[16] = dose: 100.0 mg/kg/injection, schedule: Q04DX003 (ip), vehicle: Klucel (hydroxypropylcellulose) (HPC)
[17] = dose: 200.0 mg/kg/injection, schedule: Q04DX003 (ip), vehicle: Klucel (hydroxypropylcellulose) (HPC)
[18] = dose: 400.0 mg/kg/injection, schedule: Q04DX003 (ip), vehicle: Klucel (hydroxypropylcellulose) (HPC)

Measured: T/C

COc1ccc2nc3cc(Cl)ccc3c(NC(C)CCCN(CCCl)CCCl)c2c1 (configuration not stated)
inactive: dose: 0.25 mg/kg/injection, schedule: Q01DX009 (ip), vehicle: saline 108 % of control | dose: 0.25 mg/kg/injection, schedule: Q04DX003 (ip), vehicle: saline 115 % of control | dose: 0.5 mg/kg/injection, schedule: Q01DX009 (ip), vehicle: saline 117 % of control | dose: 0.5 mg/kg/injection, schedule: Q04DX003 (ip), vehicle: saline 100 % of control | dose: 1.0 mg/kg/injection, schedule: Q01DX009 (ip), vehicle: saline 104 % of control | dose: 1.0 mg/kg/injection, schedule: Q04DX003 (ip), vehicle: saline 109 % of control | dose: 2.0 mg/kg/injection, schedule: Q04DX003 (ip), vehicle: saline 116 % of control

O=C(CNC(=O)Nc1ccc(Cl)c(Cl)c1)NNC(=O)Nc1ccc(Cl)c([N+](=O)[O-])c1
inactive: [1] 97 % of control | [2] 97 % of control | [3] 93 % of control

O=C1C(=O)c2ccccc2C(O)=C1C(C1=C(O)c2ccccc2C(=O)C1=O)c1ccc(Cl)c(Cl)c1
inactive: dose: 75.0 mg/kg/injection, schedule: Q01DX001 (ip), vehicle: carboxymethylcellulose (CMC) 94 % of control

COC1=C(N2CC2)C(=O)c2ccccc2C1=O
inactive: [4] 109 % of control | dose: 50.0 mg/kg/injection, schedule: Q04DX003 (ip), vehicle: saline with Tween-80 101 % of control | [5] 101 % of control and 108 % of control

C/C=C/C[n+]1c(C)ccc2ccccc21
inactive: dose: 12.5 mg/kg/injection, schedule: Q01DX001 (ip), vehicle: saline 98 % of control | dose: 25.0 mg/kg/injection, schedule: Q01DX001 (ip), vehicle: saline 96 % of control | dose: 50.0 mg/kg/injection, schedule: Q01DX001 (ip), vehicle: saline 93 % of control

NC(=S)N/N=C/c1c(Cl)n(C(=O)c2ccccc2)c2ccccc12
inactive: dose: 50.0 mg/kg/injection, schedule: Q04DX002 (ip), vehicle: Klucel (hydroxypropylcellulose) (HPC) 98 % of control | [6] 87 % of control | [7] 87 % of control

COc1c(OC)c(OC)c2c(=O)cc(-c3ccc4c(c3)OCO4)oc2c1OC
inactive: [8] 103 % of control | [9] 100 % of control | [10] 100 % of control | [11] 91 % of control

CCN(CC)C(=S)Oc1c(C(C)(C)C)cc([N+](=O)[O-])c(C)c1[N+](=O)[O-]
inactive: [6] 90 % of control | [7] 100 % of control | [12] 97 % of control

CC(/C=C/c1ccc2c(c1)OCO2)[N+](=O)[O-] (configuration not stated)
inactive: [13] 103 % of control | [14] 103 % of control | [15] 106 % of control

Cc1c(C)c2c(c(C)c1O)CCC(C)(C)O2
inactive: dose: 50.0 mg/kg/injection, schedule: Q01DX009 (ip), vehicle: Klucel (hydroxypropylcellulose) (HPC) 97 % of control | [1] 100 % of control | [2] 103 % of control

CCCCCCC(=O)C(C)C
inactive: [1] 93 % of control | [16] 89 % of control | [2] 96 % of control | [17] 88 % of control | [3] 106 % of control | [18] 98 % of control

C1CCC(CCC(CCCC2CCCC2)CCC2CCCCC2)CC1
inactive: dose: 100.0 mg/kg/injection, schedule: Q01DX001 (ip), vehicle: saline with Tween-80 94 % of control | dose: 200.0 mg/kg/injection, schedule: Q01DX001 (ip), vehicle: saline with Tween-80 94 % of control | dose: 400.0 mg/kg/injection, schedule: Q01DX001 (ip), vehicle: saline with Tween-80 102 % of control

Cc1cc(C)c(NC2=NCCS2)cc1C
inactive: dose: 100.0 mg/kg/injection, schedule: Q04DX002 (ip), vehicle: saline with Tween-80 100 % of control

N#CC1(C#N)CC=CCC1(C#N)C#N
inactive: dose: 12.5 mg/kg/injection, schedule: Q01DX009 (ip), vehicle: other 92 % of control | dose: 25.0 mg/kg/injection, schedule: Q01DX009 (ip), vehicle: other 87 % of control

N#Cc1ccc(Cl)cc1
inactive: [6] 100 % of control | [7] 102 % of control

COc1ccc(Cl)cc1/C=C\C=N\NC(=O)C[N+](C)(C)C
inactive: dose: 15.0 mg/kg/injection, schedule: Q01DX001 (ip), vehicle: carboxymethylcellulose (CMC) 95 % of control | dose: 30.0 mg/kg/injection, schedule: Q01DX001 (ip), vehicle: carboxymethylcellulose (CMC) 93 % of control

Cc1nc(N)[nH]c(=O)c1CCCNC(=O)c1cccc([N+](=O)[O-])c1
inactive: dose: 50.0 mg/kg/injection, schedule: Q01DX001 (ip), vehicle: Klucel (hydroxypropylcellulose) (HPC) 108 % of control | [13] 114 % of control

CN(C)CCc1ccccc1OC1CCCC1
inactive: dose: 75.0 mg/kg/injection, schedule: Q01DX001 (ip), vehicle: other 101 % of control | dose: 150.0 mg/kg/injection, schedule: Q01DX001 (ip), vehicle: other 102 % of control | dose: 300.0 mg/kg/injection, schedule: Q01DX001 (ip), vehicle: other 101 % of control

Cc1ccc(S(=O)(=O)N(C)c2ccc3cc(C(=O)O)ccc3c2)cc1
inactive: [1] 94 % of control | [16] 102 % of control | [2] 95 % of control | [17] 106 % of control | [3] 94 % of control | [18] 90 % of control

Nc1ncnc2sc(SCc3ccccc3)nc12
inactive: [5] 107 % of control | dose: 200.0 mg/kg/injection, schedule: Q04DX003 (ip), vehicle: saline with Tween-80 102 % of control | dose: 400.0 mg/kg/injection, schedule: Q04DX003 (ip), vehicle: saline with Tween-80 100 % of control

COc1cc(Cl)ccc1NC(=O)Oc1ccc2c(C)cc(=O)oc2c1
inactive: [1] 100 % of control

Cc1cc([N+](=O)[O-])c(Nc2ccc(C)c(Cl)c2)c([N+](=O)[O-])c1
inactive: [6] 93 % of control | [7] 91 % of control | [12] 96 % of control

O=C(C[n+]1ccc2ccccc2c1)c1ccc([N+](=O)[O-])cc1
inactive: dose: 12.5 mg/kg/injection, schedule: Q04DX003 (ip), vehicle: saline 101 % of control | dose: 25.0 mg/kg/injection, schedule: Q04DX003 (ip), vehicle: saline 103 % of control | dose: 50.0 mg/kg/injection, schedule: Q04DX003 (ip), vehicle: saline 107 % of control

BrCC[CH2][Sn]([Br])([Br])[Br]
inactive: dose: 50.0 mg/kg/injection, schedule: Q01DX009 (ip), vehicle: saline 107 % of control | dose: 100.0 mg/kg/injection, schedule: Q01DX009 (ip), vehicle: saline 103 % of control

O=C(NC1C=CCCC1)NC1C=CCCC1 (configuration not stated)
inactive: [8] 88 % of control | [9] 94 % of control | [10] 97 % of control | [11] 94 % of control

O=C(O)COc1nc(Cl)c(Cl)cc1Cl
inactive: [6] 107 % of control | [7] 104 % of control

CNC(=O)n1cnc(N)n1 (tested in a mixture with another compound)
inactive: [1] 96 % of control | [2] 103 % of control

CCOC(=O)NCC(C)(C)C
inactive: dose: 100.0 mg/kg/injection, schedule: Q01DX001 (ip), vehicle: saline 104 % of control | dose: 200.0 mg/kg/injection, schedule: Q01DX001 (ip), vehicle: saline 107 % of control | dose: 400.0 mg/kg/injection, schedule: Q01DX001 (ip), vehicle: saline 93 % of control

Nc1cc([N+](=O)[O-])cc([N+](=O)[O-])c1Cl
inactive: [13] 93 % of control | [14] 96 % of control | [15] 101 % of control

CSc1nc([N+](=O)[O-])c2cnccn12
inactive: dose: 6.25 mg/kg/injection, schedule: Q01DX009 (ip), vehicle: saline with Tween-80 88 % of control | dose: 12.5 mg/kg/injection, schedule: Q01DX009 (ip), vehicle: saline with Tween-80 93 % of control | dose: 12.5 mg/kg/injection, schedule: Q04DX003 (ip), vehicle: saline with Tween-80 101 % of control | dose: 25.0 mg/kg/injection, schedule: Q01DX009 (ip), vehicle: saline with Tween-80 93 % of control | [4] 103 % of control | dose: 50.0 mg/kg/injection, schedule: Q01DX009 (ip), vehicle: saline with Tween-80 93 % of control
